{"source": "ChEMBL document CHEMBL1782005", "about": "“Turnagainolides A and B, cyclic depsipeptides produced in culture by a Bacillus sp.: isolation, structure elucidation, and synthesis” (J Nat Prod, 2011)", "note": "The source made the active and inactive calls. No cut-off for these calls is given here."}
{"biological_target": "T1, Phosphatidylinositol 3,4,5-trisphosphate 5-phosphatase 1 (Homo sapiens) (UniProt Q92835)", "T1 sequence (whole entry)": "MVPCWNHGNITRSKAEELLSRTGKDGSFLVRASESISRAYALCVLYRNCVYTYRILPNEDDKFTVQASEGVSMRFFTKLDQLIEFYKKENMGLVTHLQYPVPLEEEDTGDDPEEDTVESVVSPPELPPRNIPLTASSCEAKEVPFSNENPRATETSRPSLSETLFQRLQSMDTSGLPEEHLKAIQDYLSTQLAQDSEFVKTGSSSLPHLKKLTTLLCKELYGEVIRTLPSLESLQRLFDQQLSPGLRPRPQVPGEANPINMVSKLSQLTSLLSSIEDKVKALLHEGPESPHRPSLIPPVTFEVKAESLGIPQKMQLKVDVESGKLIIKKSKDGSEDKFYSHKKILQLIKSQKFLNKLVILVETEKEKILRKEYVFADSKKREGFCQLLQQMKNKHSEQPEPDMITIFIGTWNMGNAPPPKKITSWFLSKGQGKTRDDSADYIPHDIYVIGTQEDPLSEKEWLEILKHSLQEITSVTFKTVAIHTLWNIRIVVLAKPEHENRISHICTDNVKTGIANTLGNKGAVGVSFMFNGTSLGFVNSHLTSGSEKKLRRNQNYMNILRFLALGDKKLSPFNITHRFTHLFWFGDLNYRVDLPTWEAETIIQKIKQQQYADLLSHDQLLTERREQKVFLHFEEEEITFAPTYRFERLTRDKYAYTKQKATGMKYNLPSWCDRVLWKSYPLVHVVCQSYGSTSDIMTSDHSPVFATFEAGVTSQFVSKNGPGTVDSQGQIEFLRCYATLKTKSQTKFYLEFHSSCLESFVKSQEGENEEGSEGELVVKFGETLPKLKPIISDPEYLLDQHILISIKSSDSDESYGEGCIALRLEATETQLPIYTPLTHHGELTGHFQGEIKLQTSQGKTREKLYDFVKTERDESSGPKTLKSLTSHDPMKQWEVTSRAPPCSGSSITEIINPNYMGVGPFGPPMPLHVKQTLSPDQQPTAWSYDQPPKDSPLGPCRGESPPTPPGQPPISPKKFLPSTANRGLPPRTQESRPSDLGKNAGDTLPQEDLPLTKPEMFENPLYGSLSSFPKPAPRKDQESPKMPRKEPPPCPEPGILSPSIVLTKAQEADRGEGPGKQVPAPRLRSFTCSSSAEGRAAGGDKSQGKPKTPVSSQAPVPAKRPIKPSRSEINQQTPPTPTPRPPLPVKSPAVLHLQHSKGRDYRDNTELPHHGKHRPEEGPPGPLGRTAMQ", "assay": "Activation of SHIP1 using IP4 as substrate at 10 uM preincubated for 10 mins before addition of IP4 measured after 10 mins"}
{"compound": "CC[C@H](C)[C@@H]1NC(=O)[C@@H](C)NC(=O)[C@H](C(C)C)NC(=O)C[C@@H](/C=C/c2ccccc2)OC(=O)[C@H](C(C)C)NC1=O", "Activity": "Active"}
{"compound": "Cc1cc(O)cc2c1[C@]1(C)CC[C@H]3C(C)(C)CCC[C@]3(C)[C@H]1C2", "Activity": "Active"}
{"compound": "CC[C@H](C)[C@@H]1NC(=O)[C@@H](C)NC(=O)[C@H](C(C)C)NC(=O)C[C@H](/C=C/c2ccccc2)OC(=O)[C@H](C(C)C)NC1=O", "Activity": "inactive"}
